≈ marks a conversion by molar mass, not a printed value.
Columns and labels:
[1] = Behavior under compression; type: physicochemical; conditions: 2 Mpa/2 min, hydraulic press
Description: XRPD characterization was performed to investigate polymorphic behavior under compression.

[2] = Equilibrium solubility in FeSSIF and FaSSIF; type: physicochemical; conditions: 24 hours; for Solubility: target concentration 1 mg/mL, HPLC method 1 or 2 (footnote)
Description: Solid part and liquid part were separated by filtration. Solubility was measured by HPLC. Solid part (wet cake) was investigated by XRPD.

[3] = Bulk stability of crystalline forms; type: physicochemical; set-up: key: Color A: All No change of color; Color B: Slightly discoloration; conditions: Solid state, 60° C., tight container, 2 weeks
Source text: (§1) Solids obtained after bulk stability study were characterized by XRPD and HPLC.

[4] = Bulk stability of crystalline forms; type: physicochemical; set-up: key: Color A: All No change of color; conditions: Solid state
Source text: as §1

[5] = Bulk stability of crystalline forms; type: physicochemical; conditions: for Purity, Bulk (HPLC): Solid state; for Initial purity: before stress, HPLC; for chemical stability and physical stability (bulk stability): stressed under 25° C./92 RH, 40% C/75% RH and 60° C., XRPD and HPLC
Source text: as §1

[6] = Intrinsic dissolution rate (IDR) evaluation in FaSSIF; type: physicochemical; conditions: FaSSIF at 37° C.; for XRPD after IDR: disc surface after 120 min; for Concentration detected during IDR test (Comments): for Form V and Form A remains same during the whole process, LOQ for Form T and amorphous form
Description: Only one surface of the pellet was exposed (surface area=0.50 cm^2) to 900 mL FaSSIF, the dissolution medium. Temperature of chamber medium was set as 37±0.5° C. Shaft rotation as 100 rpm and sampling time points as 2 min, 5 min, 10 min, 15 min, 20 min, 25 min, 30 min, 35 min, 40 min, 50 min, 60 min, and 120 min. 2 mL sample solution was withdrawn at each time point and centrifuged at 14,000 rpm for 5 min to isolate supernatant. Then concentration of the supernatant was analyzed by HPLC. After 120 min, XRPD of disc surface was measured.

[7] = Grinding simulation experiments - dry grinding; type: physicochemical
Description: About 20 mg of Form A, Form D, and Form T were ground manually with a mortar and a pestle for 5 min or 1 min. Potential from transition and degree of crystallinity were evaluated by XRPD.

[8] = Grinding simulation experiments - wet grinding (granulation); type: physicochemical
Description: Water or ethanol was added drop wise to about 20 mg of Form A, Form D, or Form T until solid was wetted sufficiently. Vortex was applied between each addition. Samples were dried under ambient condition for 10 min. Potential form transition and degree of crystallinity were evaluated by XRPD.

[9] = Hygroscopicity: water sorption and desorption by dynamic vapor sorption (DVS); type: physicochemical
Description: In some embodiments, the crystalline form described herein is further characterized by is further characterized by a dynamic vapor sorption (DVS) profile. In some embodiments, a DVS is recorded according to the method as described herein with a cycle of 40-0-95-0-40% RH at 25° C.
Water sorption and desorption behaviors of Form A, Form C, Form D, and Form T were investigated by DVS at 25° C. with a cycle of 40-0-95-0-40% RH. Dm/dt was 0.002. Minimum equilibration time was 60 min. Maximum equilibration time was 360 min. XRPD was measured after DVS test to determine potential form change.

[10] = biological target: T1, MAT2A enzyme (Homo sapiens, UniProt P31153); assay: Phosphate Sensor Fluorescence Assay; type: biochemical; conditions: inhibition of MAT2A enzyme
T1 construct: Human MAT2A: Cepter, amino acids 1-395; purchased Cepter clone ID 329, lot 00023-123; clone ID 334, lot 00023-148
T1 sequence (P31153 whole entry, the tested form may be a part): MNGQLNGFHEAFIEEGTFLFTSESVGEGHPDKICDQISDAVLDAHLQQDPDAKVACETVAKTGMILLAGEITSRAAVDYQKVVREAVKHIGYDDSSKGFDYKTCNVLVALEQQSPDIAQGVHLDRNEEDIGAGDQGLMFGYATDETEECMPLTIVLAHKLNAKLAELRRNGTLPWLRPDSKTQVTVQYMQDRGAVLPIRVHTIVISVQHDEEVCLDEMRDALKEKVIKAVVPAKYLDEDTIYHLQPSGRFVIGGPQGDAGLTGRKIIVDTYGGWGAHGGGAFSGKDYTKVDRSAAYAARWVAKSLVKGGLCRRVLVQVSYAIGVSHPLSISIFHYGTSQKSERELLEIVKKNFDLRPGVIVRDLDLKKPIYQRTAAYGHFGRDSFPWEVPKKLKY
Description: The ability of the compound of Formula (I) described in Example 1 to inhibit MAT2A enzyme was determined using a Phosphate Sensor Fluorescence Assay described below.
MAT2A enzyme is incubated with a test compound in DMSO or DMSO and its substrates (L-methionine and ATP) in a microtiter plate. The enzymatic reaction is stopped by the addition of Working Phosphate Sensor Mixture. The plate is analyzed for fluorescence at 450 nm. The high control (DMSO with enzyme and its substrates) gives high fluorescence which represents no inhibition of enzymatic activity while the low control (DMSO with MAT2A substrates and no enzyme) gives low fluorescence which represents full inhibition of enzymatic activity. […]
For the assay, a mixture of 1 mM L-methionine/1 mM ATP (2× final pre-stopped concentration) in assay buffer; MAT2A (2× final pre-stopped concentration) in Assay Buffer and Working Phosphate Sensor Mixture (1.5 μM Phosphate Sensor/30 mM EDTA in Assay Buffer, which is 3× final concentrations) were prepared. […] The plate was read for fluorescence at 450 nm after exciting at 430 nm.
Percent inhibition was calculated in Chemical and Biological Information System (CBIS), (ChemInnovation Software Inc.). […]

[11] = 25° C./92% RH, open container, 1 week
[12] = 25° C./92% RH, open container, 2 weeks
[13] = 25° C./92% RH, open container, 4 weeks
[14] = 40° C./75% RH, open container, 1 week
[15] = 40° C./75% RH, open container, 2 weeks
[16] = 40° C./75% RH, open container, 4 weeks
[17] = 60° C., tight container, 1 week
[18] = 60° C., tight container, 4 weeks
[19] = 60° C., tight container, 2 weeks

Row | Structure (SMILES) | final pH ([2]; FaSSIF, pH 6.5, 37° C.) | Solubility ([2]; FaSSIF, pH 6.5, 37° C.) | final pH ([2]; FeSSIF, pH 5.0, 37° C.) | Solubility ([2]; FeSSIF, pH 5.0, 37° C.) | Color [4, 11] | Color [4, 12] | Color [4, 13] | Color [4, 14] | Color [4, 15] | Color [4, 16] | Color [4, 17] | Color [4, 18] | Purity, Bulk (HPLC) [5, 11] | Purity, Bulk (HPLC) [5, 12] | Purity, Bulk (HPLC) [5, 13] | Purity, Bulk (HPLC) [5, 14] | Purity, Bulk (HPLC) [5, 15] | Purity, Bulk (HPLC) [5, 16] | Purity, Bulk (HPLC) [5, 17] | Purity, Bulk (HPLC) [5, 19] | also measured
1 | Nc1nc(=O)n(-c2ccccc2Cl)c2nc(C(F)(F)F)ccc12 [substantially amorphous form, 4-Amino-1-(2-chlorophenyl)-7-(trifluoromethyl)pyrido[2,3-d]pyrimidin-2(1H)-one] | 6.5 | 120 µg/mL (≈ 352 µM) | 5.0 | 230 µg/mL (≈ 675 µM) | A | A | A | A | A | A | A | A | 98.5% | 98.1% | 97.2% | 97.5% | 96.1% | 93.5% | 98.4% | 97.8% | XRPD after compression [1]: No form change; Color [3]: B; Purity, Bulk (HPLC) [5, 18]: 97.8%; degradation (bulk stability) ([5]; after exposure to 40° C./75 RH in an open container and 60° C. in a tight container): slight degradation; Initial purity [5]: 98.7%; chemical stability and physical stability (bulk stability) [5]: physically stable; XRPD after IDR [6]: No form change; Concentration detected during IDR test (Comments) [6]: <LOQ (0.0008 mg/mL
2 | Nc1nc(=O)n(-c2ccccc2Cl)c2nc(C(F)(F)F)ccc12 [Form T, 4-Amino-1-(2-chlorophenyl)-7-(trifluoromethyl)pyrido[2,3-d]pyrimidin-2(1H)-one] | 6.5 | 80 µg/mL (≈ 235 µM) | 5.0 | 160 µg/mL (≈ 470 µM) | A | A | A | A | A | A | A | A | 99.1% | 99.0% | 98.9% | 98.9% | 98.7% | 98.3% | 99.1% | 99.0% | XRPD of solid after solubility test ([2]; FaSSIF, pH 6.5, 37° C.): Form T; XRPD of solid after solubility test ([2]; FeSSIF, pH 5.0, 37° C.): Form T; Color [4, 19]: A; XRPD after dry grinding ([7]; Dry grinding for 5 min): substantially amorphous; tolerance to dry grinding ([7]; ground manually with mortar and pestle, 5 min or 1 min, XRPD): poor tolerance; XRPD after wet grinding ([8]; Water): No form change; form change after granulation with water ([8]; wet grinding, XRPD): no form change; tolerance to granulation with water ([8]; wet grinding, XRPD): good tolerance; Purity, Bulk (HPLC) [5, 18]: 98.7%; Initial purity [5]: 99.1%; chemical stability and physical stability (bulk stability) [5]: good chemical stability and physical stability; hygroscopicity ([9]; DVS at 25° C., cycle 40-0-95-0-40% RH): slightly hygroscopic; form change after the DVS test ([9]; XRPD after DVS): No form change; XRPD after IDR [6]: No form change; Concentration detected during IDR test (Comments) [6]: <LOQ (0.0003 mg/mL
3 | Nc1nc(=O)n(-c2ccccc2Cl)c2nc(C(F)(F)F)ccc12 [Formula (I), 4-Amino-1-(2-chlorophenyl)-7-(trifluoromethyl)pyrido[2,3-d]pyrimidin-2(1H)-one] |  |  |  |  |  |  |  |  |  |  |  |  |  |  |  |  |  |  |  |  | IC50 [10]: < 200 nM
